Experiments:
GAT-1 = GAT-1 protein expression (SDS-PAGE, anti-GAT-1 blot), patient human astrocytes; format: cell-based; conditions: PBA 2 mM
Method: FIGS. 6A-B show human patient corrected (isogenic control, Corr) or uncorrected patient (Pat) astrocytes at day 30-35 after differentiation from iPSCs were co-transfected with the endoplasmic reticulum (ER) marker ER^CFP in combination with the wildtype or the mutant GAT-1^YFP cDNAs (0.5 μg: 0.5 μg per a 35 mm^2 dish) for 48 hrs before confocal microscopy analysis. Confocal images were acquired in live astrocytes under 63× objective with zoom under 2.5×. […] FIG. 6B represents the ER overlapping signal of GAT-1^YFP analyzed by Metamorph. […] Membranes were blotted with a rabbit polyclonal anti-GAT-1 antibody (FIG. 6C). The lysates of Chinese hamster ovary (CHO) cells were used as control. […] Values were expressed as mean±S.E.M.). […]
Data were expressed as mean±SEM. Proteins were quantified by Odyssey software and data were normalized to loading controls and then to the wildtype subunit protein, which was arbitrarily taken as 1 in each experiment. Fluorescence intensities from confocal microscopy experiments were determined using MetaMorph imaging software, and the measurements were carried out in ImageJ. […]

[1] = tested on: GAT-1 in human iPSC-derived neurons; experiment: 3H GABA uptake, human iPSC-derived neurons; format: cell-based; conditions: PBA treated human iPSC-derived neurons; PBA 2 mM, 24 hrs
Method: Live images of human neural progenitor cells (NPCs), astrocytes and GABAergic inhibitory neurons differentiated from the human induced pluripotent stem cells (iPSCs) on the day of experiment. […] The DMSO treated corrected or patient cells was taken as 1. […] GABA flux was measured after 30 min transport at room temperature. The influx of GABA, expressed in pmol/μg protein/min, was averaged from duplicates for each condition and for each transfection. The average counting was DMSO treated condition taken as 1. In FIG. 5B, FIG. 5D and FIG. 5F, 966 stands for CI-966 (50 μM) and 711 stands for NNC-711 (35 μM) that was applied 30 min to the astrocytes transfected with the wildtype GAT-1^YFP before preincubation and removed during preincubation. In FIGS. 5B and D, ***p<0.001 vs. corrected DMSO treated. § § <0.01, § § § p<0.001 vs. patient DMSO treated. […] In FIGS. 5B-E, n=4-8 batches of cells. In FIG. 5F, n=4-5 different transfections). Unpaired t test was used for FIG. 5C and FIG. 5E. […] Values were expressed as mean±S.E.M.). […]
Briefly, cells were cultured in […] dishes for 3 days before the GABA uptake experiment in DMEM with 10% fetal bovine serum and 1% penicillin/streptomycin. […] Glacial acetic acid was added, and lysates were then determined on a liquid scintillator with QuantaSmart. […]

## O=C(O)CCCc1ccccc1 [PBA, 4-phenylbutyric acid]
GAT-1; 24 hrs
  GAT-1 expression normalized to its own genotype DMSO treated: 1.39±0.046
GAT-1; 24 hrs (52.2% untreated)
  total GAT-1 protein of the patient astrocytes as % of the corrected: 73.2%
[1]
  increase of GABA uptake: ~20%

From patent US20260144769A1, “4-PHENYLBUTYRATE RESTORED GABA UPTAKE AND REDUCED SEIZURES IN SLC6A1 VARIANT-MEDIATED DISORDERS” (Vanderbilt University, priority 2022, published 2026)
